Laboratory results: US20160030628A1, “TREATMENT FOR BILE LEAKAGE” (3-D MATRIX, LTD, priority 2013, published 2016)

Tests used:
[1] = test system: gallbladder bile leakage occlusion site; test: histopathology assessment (H&E) of the bile leakage occlusion site; format: in vivo, porcine; settings: gallbladder fixed in formalin after occlusion with 2.5% w/v RADA16
Protocol: (§1) The objective of this study was to evaluate a self-assembling peptide solution (RADA16 in the form of PuraMatrix™ peptide hydrogel by 3-D Matrix, LTD.) as a bile leakage occlusion material in a porcine model. A histopathology assessment was also performed.
After bile leakage occlusion was achieved, the gallbladder was fixed in formalin and the H&E-stained pathological specimen was made at the bile leakage occlusion site.

[2] = test system: bile leakage from punctured gall bladder; test: bile leakage occlusion in a porcine gall bladder needle puncture model; format: in vivo; settings: 2.5% w/v RADA16
Protocol: as §1
On the day of testing, an animal was sedated and prepared for surgery. A bile leakage model was prepared by puncturing needle punctures, using a 20G injection needle in the gall bladder of the test subject, as shown in FIG. 1A.
Subsequent to applying the self-assembling peptide solution, a bile leakage occlusion was confirmed at 1 minute, 20 seconds, as shown in FIG. 1D.
It was determined that 0.5 mL of the peptide solution was used to achieve the bile leakage occlusion of the needle puncture in the gallbladder.

## Arg-Ala-Asp-Ala-Arg-Ala-Asp-Ala-Arg-Ala-Asp-Ala-Arg-Ala-Asp-Ala (RADARADARADARADA) [RADA16, self-assembling peptide; 1 and 2.5 w/v percent aqueous solutions available as PuraMatrix peptide hydrogel by 3-D Matrix]
[1]
  histopathological finding at bile leakage occlusion site (H&E-stained specimen, FIG. 2): occluded the bile leakage site
[2]; 20G needle puncture in the gallbladder, porcine model
  volume of peptide solution used to achieve the bile leakage occlusion of the needle puncture: 0.5 mL
[2]; checked at 3 minutes, porcine gall bladder puncture
  secondary bile leakage after excess hydrogel was irrigated from the site: absence of a secondary bile leakage was confirmed
